# Measurements taken from patent US7829568B2, “Substituted 5,6,7,8-tetrahydroimidazo[1,2-a]pyridin-2-ylamine compounds and their use for producing drugs” (Gruenenthal GmbH, priority 2005, dated 2010).
# Tested on: batrachotoxin (BTX) binding site of the sodium channel
# Experiment: Affinity to the batrachotoxin (BTX) binding site of the sodium channel
# Set-up: species or system rat
# Conditions: for BTX inhibition (rat) (% inhibition): [3H]-batrachotoxinin A20 α-benzoate 10 nM, synaptosomes from rat cerebral cortex, test concentration not given
Compound,BTX inhibition (rat) (% inhibition) [%],"Kd (radioligand at BTX binding site, rat cerebral cortex synaptosomes) [nM]"
"CCCCN(C(=O)c1cccc(Cl)c1)c1nc2n(c1C(=O)Nc1ccc3c(c1)OCCO3)CCCC2 [Example 181, 2-[butyl-(3-chloro-benzoyl)-amino]-5,6,7,8-tetrahydro-imidazo[1,2-a]pyridine-3-carboxylic acid (2,3-dihydro-benzo[1,4]dioxin-6-yl)-amide]",82,–
"CN(C(=O)c1cccc2ccccc12)c1nc2n(c1C(=O)Nc1ccc(Oc3ccccc3)cc1)CCCC2 [Example 185, 2-[methyl-(naphthalene-1-carbonyl)-amino]-5,6,7,8-tetrahydro-imidazo[1,2-a]pyridine-3-carboxylic acid (4-phenoxy-phenyl)-amide]",74,–
"CCCCN(C(=O)c1ccc(F)c(F)c1)c1nc2n(c1C(=O)N1CCN(c3ccc(C(F)(F)F)cn3)CC1)CCCC2 [Example 187, N-butyl-3,4-difluoro-N-{3-[4-(5-trifluoromethyl-pyridin-2-yl)-piperazine-1-carbonyl]-5,6,7,8-tetrahydro-imidazo[1,2-a]pyridin-2-yl}-benzamide]",41,–
"CCCCN(C(=O)c1cccc(Cl)c1)c1nc2n(c1C(=O)Nc1ccc(NC(=O)OC(C)(C)C)cc1)CCCC2 [Example 189, [4-({2-[butyl-(3-chloro-benzoyl)-amino]-5,6,7,8-tetrahydro-imidazo[1,2-a]pyridine-3-carbonyl}-amino)-phenyl]-carbamic acid tert-butyl ester]",93,–
[^3H]-batrachotoxinin A20 α-benzoate [reference compound],–,24.6 ± 1.56
